SMILES strings stand for the structures.

Usually EC50 stands for the midpoint of the concentration-response curve.

The experiment relates to HIV-1 single-round infectious reporter virus. Put plainly: Single-round infectious HIV-1 luciferase reporter virus infection of HeLa CD4 CCR5 cells. The format is cell-based. The settings on record: Human immunodeficiency virus 1, HeLa-CD4/CCR5, 72 h, read-out: Group (EC50). From the text:
The materials and experimental procedures used to obtain the results for representative compounds of Formula I reported in Tables 7–9 are described below.
• Virus production—Human embryonic Kidney cell line, 293, propagated in Dulbecco's Modified Eagle Medium (Life Technologies, Gaithersburg, Md.) containing 10% fetal Bovine serum (FBS, Sigma, St. Louis, Mo.). • Virus infection—Human epithelial cell line, HeLa, expressing the HIV-1 receptors CD4 and CCR5 was propagated in Dulbecco's Modified Eagle Medium (Life Technologies, Gaithersburg, Md.) containing 10% fetal Bovine serum (FBS, Sigma, St. Louis, Mo.) and supplemented with 0.2 mg/ml Geneticin (Life Technologies, Gaithersburg, Md.) and 0.4 mg/ml Zeocin (Invitrogen, Carlsbad, Calif.). • Virus—Single-round infectious reporter virus was produced by co-transfecting human embryonic Kidney 293 cells with an HIV-1 envelope DNA expression vector and a proviral cDNA containing an envelope deletion mutation and the luciferase reporter gene inserted in place of HIV-1 nef sequences (Chen et al, Ref. 41). […] Viral infection was monitored by measuring luciferase expression from viral DNA in the infected cells using a luciferase reporter gene assay kit (Roche Molecular Biochemicals, Indianapolis, Ind.). […] Luciferase activity was then quantified by measuring luminescence using a Wallac microbeta scintillation counter. • 5. […]

Regarding `C[C@@H]1CN(C(=O)c2ccccc2)CCN1C(=O)C(F)(F)c1ccc2ccccc2c1` [Example 54], the EC50 is < 1 µM. Consider `C[C@@H]1CN(C(=O)c2ccccc2)CCN1C(=O)C1(c2ccc3ccccc3c2)CC1` [Example 55], for which the EC50 is < 1 µM.

For the origin of these results see patent publication US7037913B2, “Bicyclo 4.4.0 antiviral derivatives” (priority 2002, dated 2006).
